Consider two compounds from patent US20220304286A1, “SYSTEMS AND METHODS FOR IN VIVO DUAL RECOMBINASE-MEDIATED CASSETTE EXCHANGE (dRMCE) AND DISEASE MODELS THEREOF” (CEDARS-SINAI MEDICAL CENTER, priority 2019, published 2022).

“Also recorded” adds a separate entry of the source.

The subject of one series is MADR K27M tumor cells. The series is described as follows: High-throughput drug testing: live-cell imaging of proliferation, MADR K27M tumor cell lines. In kind it is cell-based, mouse. The following applies: imaged for 92 hours, Incucyte phase contrast, 4 biological replicates. The method, then:
(§1) In high-throughput drug testing experiments, 10.000 cell from the cell lines generated from tumor dissociation and non-tumor control cells were plated in 96 well plates. 24 hours after the seeding appropriate concentration of each drug (1 μM for Vacquinol-1(Sigma-Aldrich, SML1187) and 0.5 μM for AKT 1/2 kinase inhibitor (Sigma- Aldrich, A6730)) was added to the media and cells were imaged for 92 hours in phase contrast using Incucyte S3 System. Images were collected every 2 hours using Incucyte S3 Software. Cell proliferation images analysis was done with Incucyte S3 software and normalized results presented and analyzed with Graphpad Prism 7.
(§2) Mice were euthanized in CO2 chamber and brains were collected in PBS. Immediately, EGFP+ tissue was micro-dissected under a Revolve Hybrid Microscope (Echo Labs, San Diego, Calif.). If allowed by the size of the tumor, some remains of the brain with residual tumor tissue was fixed in 4% PFA for tissue analysis. Microdissected tissue was mechanically dissociated into <1 mm pieces and further digested with Collagenase IV (Worthington Biochemical, Lakewood, N.J.), and DNAse I (Worthington Biochemical, Lakewood, N.J.). The resultant single cell suspension was filtered through […] cell strainer (Stellar Scientific, Baltimore, Md.) and erythrocytes were lysed with ACK lysis buffer (Thermo Fisher Scientific, Waltham, Mass.). […]

For series [1], the system named is NPCs (tdTomato+ non-tumor control cells). The series is described as follows: High-throughput drug testing: live-cell imaging of proliferation, non-tumor control NPCs. The series is classed as cell-based, mouse. The following applies: imaged for 92 hours, paired toxicity screening. The method, then: as §1
as §2, with “Mass.). Single cell suspensions were split into 3 parts: First, for scRNAseq or sc-ATACseq experiments, GFP+ cells from single cell samples were FACS sorted (into 1.5 ml tubes for 10× Chromium). A secondary fraction was used for in vitro cell line establishment.” for “Mass.).”

A further series concerns K27M tumor cells. Conditions: earlier finding, no details given; cited from earlier work.
Where [2] appears, read: AKT 1/2 kinase inhibitor 0.5 μM.

On to `OC(c1cc(-c2ccc(Cl)cc2)nc2ccccc12)C1CCCCN1` (stereo not shown) [Vacquinol-1], for which the “cell proliferation of K27M tumor population” value with MADR K27M tumor cells (Vacquinol-1 1 μM) is listed as “inhibits K27M growth; also recorded: decreases proliferation preferentially”. Also, the “cell proliferation of NPCs” value in series [1] (Vacquinol-1 1 μM) is listed as “does not alter NPC culture growth”. In addition, the “toxicity to K27M tumor cells (previously identified)” value in the series on K27M tumor cells is “selectively toxic to K27M tumor cells”.

For the compound `O=c1[nH]c2ccccc2n1C1CCN(Cc2ccc(-c3nc4cc5nc[nH]c5cc4nc3-c3ccccc3)cc2)CC1` [Akt1/2 kinase inhibitor], the “cell proliferation of K27M tumor population” value in the series with MADR K27M tumor cells (setting [2]) is “decreases proliferation”. The “cell proliferation of NPCs” value was “decreases proliferation” in series [1] (setting [2]) and “similarly inhibited NPC proliferation” in series [1] (AKT 1/2 kinase inhibitor 0.5 μM, listed as Akt1/2 inhibitor). In addition, the “toxicity to K27M tumor cells (previously identified)” value in the series on K27M tumor cells is “selectively toxic to K27M tumor cells”.
